In patent US9314029B2, “Control and repellency of mosquitoes” (BEDOUKIAN RESEARCH, INC., priority 2012, dated 2016):

Legend:
Type in all cases: in vivo
[1] = system: Aedes aegypti; experiment: Human forearm-in-cage test, time to first confirmed bite; conditions: without the use of polymers or other inert ingredients; species not stated
[2] = system: Aedes aegypti; experiment: as above; conditions: max 8 hours
Method: (§1) In addition, human testing was performed to determine the efficacy of compounds from structure (I). Mosquito species used are described in the tables below. Each test subject was exposed to 2 products each test day. The application rate was between 0.65 ml and 1 ml/250 cm^2 for all repellents. The actual amount of repellent used was based upon the amount that provides thorough coverage of the 250 cm^2 treatment area. A repellent was applied using either a micropipette or a syringe minus the needle. The repellents were then evenly spread on the treatment area with a gloved finger. Each test subject's forearms were allowed to air dry for approximately 30 minutes prior to the first exposure. The study coordinator or technician assisted the test subjects in inserting their arms into the test cages containing 200 mosquitoes, taking care not to rub them on the cloth sleeve, to confirm that the insects were biting. If fewer than 10 mosquitoes land on the untreated arm in 60 seconds (all would normally bite), fresh mosquitoes will be added. Typically, the ten (10) landings took place within 10-30 seconds. Both treated arms were inserted into a cage; there were two subjects (4 arms) per cage. The test subjects exposed their treated forearms to the mosquitoes in the test cages for 5 minutes. The subjects then remove their arms from the cages with assistance from the study coordinator or a technician. Exposures of each arm were repeated every 30 minutes until the repellent on that arm was determined to be no longer effective (‘breakdown’) or until 8 hours have elapsed, whichever occurred first. Breakdown occurs when the first confirmed bite is noted. A confirmed bite occurs when a bite is followed by a second bite in the same exposure period or in the next succeeding exposure period. The second bite becomes the confirming bite and the breakdown time is taken as the time of the first bite. The average of two repetitions is given.

[3] = system: Aedes aegypti; experiment: Repellency on treated membrane-covered blood-filled wells; conditions: 20 min; for Avg % Repellency: relative to control
Method: (§2) The invention is illustrated by, but not limited to, the following examples. • Five replicates of 250 adult female mosquitoes each were placed in clear plastic cages with access to five warmed, blood-filled, membrane-covered wells. The mosquitoes were Aedes aegypti unless otherwise noted. Membranes were treated with repellent. Five replicates were tested. Each replicate used a fresh batch of mosquitoes, blood and treated membranes. The number of mosquitoes probing each well was recorded at two minute intervals for 20 minutes. The total numbers of probes on each well were tallied at the end of the observation period and the average percentage repellency relative to the control was calculated for each formulation.

[4] = system: Aedes aegypti; experiment: Toxicity to mosquitoes of treated surface (aluminum foil), 5 min exposure; conditions: 2.5% in ethanol, dried on foil
Method: A test was designed to determine if two test samples at 2 concentrations applied to a surface are toxic to mosquitoes. Aluminum foil squares, […] were treated with one of the test samples and after drying were placed on top of large Petri dishes, 6″ in diameter. Inverted polystyrene cups, 3.5″ in diameter and 3″ high, each with a circular hole drilled through the bottom, and the sides and top painted with Fluon, were used as the treatment containers. They were placed on top of the Petri dishes and secured with rubber bands. Mosquitoes were aspirated and gently blown through the drilled hole into the arena. A plastic disc was then placed over the hole. Five replicates of ten female Aedes aegypti were used for the test sample treatment and an additional 5 replicates of 10 mosquitoes were used for solvent control. Mosquitoes were constantly exposed to the dried test material for 5 minutes, after which time they were transferred into clean containers, where they were provided a sucrose solution for nourishment. The formal observations for knockdown were made at 1 and 4 hours. At 24 hours the numbers of live, moribund and dead mosquitoes were counted.

[5] = system: Culex quinquefasciatus; experiment: Repellency on treated membrane-covered blood-filled wells; conditions: 7% in isopropanol, 20 min; for Avg % Repellency: relative to control
Method: as §2

[6] = system: Anopheles quadrimaculatus; experiment: Human forearm-in-cage test, time to first confirmed bite; conditions: 10%, max 8 hours
Method: as §1

[7] = system: Culex quinquefasciatus; experiment: as above; conditions: 10%, max 8 hours
Method: as §1

## CCCCCC1C(=O)CCC1CC(=O)OCCC (stereo not shown) [Propyl Dihydrojasmonate]
[1]
  prolonged repellency: ≥ 8 h
[2]; 15% in isopropanol
  100% bite protection time: <0.5 hr ^
[2]; 30% in isopropanol
  100% bite protection time: 1 h
[2]; 30% in squalane
  100% bite protection time: 2.75 h
[3]; 5% in isopropanol
  Avg # Probes: 4
  Avg % Repellency: 97%
[3]; 5% in squalane
  Avg # Probes: 0
  Avg % Repellency: 99%
[3]; 7% in isopropanol
  Avg # Probes: 2.6
  Avg % Repellency: 95.6%

## CCC(C)CCCC(C)CCC1CCCC1=O (stereo not shown) [tetrahydromethyl apritone]
[3]; 7% in isopropanol
  Avg # Probes: 11
  Avg % Repellency: 74.9%

## CCCCCC1C(O)CCC1CC(=O)OCC=C(C)C (stereo not shown) [Prenyl Dihydrojasmolate]
[3]; 7% in isopropanol
  Avg # Probes: 3.2
  Avg % Repellency: 92.2%

## CCCCCC1C(=O)CCC1CC(=O)OCC=C(C)C (stereo not shown) [Prenyl Dihydrojasmonate]
[3]; 7% in isopropanol
  Avg # Probes: 2.8
  Avg % Repellency: 92.6%

## CCCCCC1C(=O)CCC1CC(C)=O (stereo not shown) [amyl cyclopentanone propanone]
[3]; 7% in isopropanol
  Avg # Probes: 0
  Avg % Repellency: 100%

## CCCCCC1C(O)CCC1CC(=O)OC (stereo not shown) [Methyl Dihydrojasmolate]
[3]; 4% in isopropanol
  Avg # Probes: 0.6
  Avg % Repellency: 98.8%
[3]; 7% in isopropanol
  Avg # Probes: 0
  Avg % Repellency: 100%

## CCCCCCCC1CC(=O)C=C(C)C1 (stereo not shown) [3-methyl-5-heptyl-2-cyclohexenone]
[4]
  1 hr knockdown: 100%
  4 hr knockdown: 100%
  24 hr mortality: 98%
[3]; 5% in isopropanol
  Avg # Probes: 0
  Avg % Repellency: 99%

## CCCCCC1C(O)CCC1CCO (stereo not shown) [dihydrojasmindiol]
[3]; 7% in isopropanol
  Avg # Probes: 7.2
  Avg % Repellency: 84.3%

## CCCCCCC1CC(=O)C=C(C)C1 (stereo not shown) [3-methyl-5-hexyl-2-cyclohexenone]
[3]; 5% in isopropanol
  Avg # Probes: 0
  Avg % Repellency: 100%

## dihydrojasmolactone
[3]; 7% in isopropanol
  Avg # Probes: 0
  Avg % Repellency: 100%

## CCCCCC1C(=O)CCC1CC(=O)OCCC (stereo not drawn) [Propyl Dihydrojasmonate - low epi, Propyl Dihydrojasmonate]
[3]; 2.5% in isopropanol
  Avg # Probes: 6
  Avg % Repellency: 85%

## CCCCCCCCCCC1CCC(=O)O1 (stereo not shown) [gamma-tetradecalactone]
[2]; 15% in isopropanol
  100% bite protection time: 0.5 hr^
[3]; 7% in isopropanol
  Avg # Probes: 0.8
  Avg % Repellency: 98.9%

## CCCCCCCCC1CCC(=O)O1 (stereo not shown) [gamma-dodecalactone]
[2]; 10% in isopropanol
  100% bite protection time: 1.25 h
[3]; 7% in isopropanol
  Avg # Probes: 0
  Avg % Repellency: 100%
[5]
  Avg # Probes: 0
  Avg % Repellency: 100%

## CCCCCC1C(O)CCC1CC(=O)OCC (stereo not shown) [Ethyl Dihydrojasmolate]
[3]; 7% in isopropanol
  Avg # Probes: 0
  Avg % Repellency: 100%

## CCCCCCCCCC1CCCC(=O)O1 (stereo not shown) [delta-tetradecalactone]
[3]; 7% in isopropanol
  Avg # Probes: 1.6
  Avg % Repellency: 97.3%

## CCCCCC1C(=O)CCC1CC(=O)N(CC)CC (stereo not shown) [methyl dihydrojasmonate amide]
[3]; 2.5% in isopropanol
  Avg # Probes: 18.6
  Avg % Repellency: 55%
[3]; 5% in isopropanol
  Avg # Probes: 6.8
  Avg % Repellency: 90.1%

## CCCCCCCCCC1CCC(=O)O1 (stereo not shown) [gamma-tridecalactone]
[2]; 30% in isopropanol
  100% bite protection time: 1 h
[3]; 5% in isopropanol
  Avg # Probes: 3.1
  Avg % Repellency: 94.4%
[3]; 7% in isopropanol
  Avg # Probes: 1.8
  Avg % Repellency: 97.5%

## CCCCCCCCC1(C)CCC(=O)O1 (stereo not shown) [gamma Methyl Dodecalactone]
[3]; 5% in isopropanol
  Avg # Probes: 1
  Avg % Repellency: 98%

## CC1CCC(C(C)(C)O)C(O)C1 (stereo not shown) [PMD, p-Menthane-3,8-diol, reference compound]
[2]; 5% in isopropanol
  100% bite protection time: 2.75 h
[2]; 10% in isopropanol
  100% bite protection time: 6.25 h
[6]
  100% bite protection time: 6.75 h
[7]
  100% bite protection time: 4.25 h
[3]; 7% in isopropanol
  Avg # Probes: 9
  Avg % Repellency: 79.2%

## CC(C)CCCC(C)CCC1CCCC1=O (stereo not shown) [tetrahydroapritone]
[3]; 7% in isopropanol
  Avg # Probes: 3.8
  Avg % Repellency: 93.7%

## CCCCCCOC(=O)CC1CCC(=O)C1CCCCC (stereo not shown) [Hexyl Dihydrojamonate]
[3]; 7% in isopropanol
  Avg # Probes: 30.4
  Avg % Repellency: 66.1%

## farnesyl cyclopentanol
[3]; 7% in isopropanol
  Avg # Probes: 16.2
  Avg % Repellency: 67.8%

## CC/C(C)=C/CC/C(C)=C/CC1CCCC1=O (stereo not shown) [methyl apritone]
[2]; 10% in isopropanol
  100% bite protection time: <0.5 hr ^
[3]; 7% in isopropanol
  Avg # Probes: 7.6
  Avg % Repellency: 90.4%
[3]; 10% in isopropanol
  Avg # Probes: 3.6
  Avg % Repellency: 93.9%
[5]
  Avg # Probes: 0
  Avg % Repellency: 100%

## CCCCCCC1CC(C)=CC(O)C1 (stereo not shown) [3-methyl-5-hexyl-2-cyclohexenol]
[3]; 5% in isopropanol
  Avg # Probes: 1
  Avg % Repellency: 91%

## CCCCCCCC1CCCC(=O)O1 (stereo not shown) [delta-dodecalactone]
[3]; 7% in isopropanol
  Avg # Probes: 0
  Avg % Repellency: 100%

## CCN(CC)C(=O)c1cccc(C)c1 [DEET ®, N,N-Diethyl-m-toluamide, reference compound]
[3]; 4% in isopropanol
  Avg # Probes: 8.4
  Avg % Repellency: 90.8%
[3]; 10% in isopropanol
  Avg # Probes: 0.8
  Avg % Repellency: 98%

## CCCCC1CC(=O)C=C(C)C1 (stereo not shown) [3-methyl-5-butyl-2-cyclohexenone]
[4]
  1 hr knockdown: 100%
  4 hr knockdown: 100%
  24 hr mortality: 88%
[3]; 5% in isopropanol
  Avg # Probes: 1
  Avg % Repellency: 97%

## CCCCCCCCCC1(C)CCC(=O)O1 (stereo not shown) [gamma Methyl Tridecalactone]
[3]; 5% in isopropanol
  Avg # Probes: 4
  Avg % Repellency: 96%

## CCCCCC1CCC(=O)O1 (stereo not shown) [gamma-nonalactone]
[3]; 7% in isopropanol
  Avg # Probes: 20.4
  Avg % Repellency: 77.1%

## CCC(C)=CCCC(C)=CCC1CCCC1O (stereo not shown) [methyl apritol]
[3]; 7% in isopropanol
  Avg # Probes: 6.6
  Avg % Repellency: 91.9%
[3]; 10% in isopropanol
  Avg # Probes: 6.8
  Avg % Repellency: 89.2%

## CCCCCC1C(=O)CCC1CC(=O)OCCC (stereo not drawn) [Propyl Dihydrojasmonate - high epi, Propyl Dihydrojasmonate]
[3]; 2.5% in isopropanol
  Avg # Probes: 2
  Avg % Repellency: 95%
